Results reported in US12221444B2, “5,6,7,7a-tetrahydrocyclopenta[f]pyrido[1,2-h][1,7]naphthyridin-11(4bH)-one compounds and methods of use” (GLAXOSMITHKLINE INTELLECTUAL, priority 2017, dated 2025).

Legend:
[1] = HepAD38 cells cytotoxicity assay (CellTiter-Glo Luminescent Cell Viability Assay); type: cell-based; settings: human, 7 days total treatment, read-out: Cell tox (EC50, ηM)
Procedure: (§1) Example 36 HepAD38 Cells—HBsAg ELISA and Cytotoxicity Assays
(§2) HepAD38 cells are maintained in collagen-coated flasks in cell culture medium (DMEM/F12 containing 10% fetal bovine serum (FBS), GlutaMax-1, penicillin/streptomycin, non-essential amino acids, Na pyruvate, 250 μg/mL geneticin, and 1 μg/mL doxycycline). Compound solutions are prepared in DMSO and compound are serially diluted for final concentrations of 4000, 1000, 250, 62.5, 15.6, 3.91, 0.977, 0.244, 0.061, and 0.015 ηM. The cells are then trypsinized and the cells are plate at 10,000 cells per well. Incubate plates are incubated at 37° C., 5% CO2 for 4 days. Media is replaced with new media with compound treatment. The plates are then incubated at 37° C., 5% CO2 for an additional 3 days for a total treatment time of 7 days. For antiviral response, HBsAg was measured using the HBsAg ELISA kit (International Immuno-diagnostics) with instructions provided. 100 uL of cell media samples was used for ELISA. The absorbance was read on the Spectramax® 384 plate reader (Molecular Devices) at 450 nm. For cell toxicity, the cells were used for CellTiter-Glo® Luminescent Cell Viability Assay reagent (Promega). The luminescence was read on Envision Multilabel Reader (Perkin Elmer). The data was analyzed compared to the DMSO control. % inhibition=(1−(unknown/high control))*100
(§3) The average % inhibition values from duplicate assay plates are then plotted in GraphPad Prism to determine one IC value: Four-parameter logistic curve with equation Y=Bottom+(Top-Bottom)/(1+10^((Log IC50−X)*HillSlope)) pIC50=[…]

HBs antigens (HBsAg) = experiment: HepAD38 cells HBsAg ELISA; type: cell-based, Hepatitis B virus; settings: read-out: HepAD38, HBsAg (EC50), 7 days total treatment, HBsAg ELISA of cell media
Procedure: as §1, §2, §3

SMILES	EC50 at 7 days [1]	EC50 (HBs antigens (HBsAg))
COCCCOc1cc2c(nc1C1CC1)-c1cc(=O)c(C(=O)O)cn1C1C2CCC1(C)C (racemic) [Example 4, 2-Cyclopropyl-3-(3-methoxypropoxy)-7,7-dimethyl-11-oxo-4b,5,6,7,7a,11-hexahydrocyclopenta[f]pyrido[1,2-h][1,7]naphthyridine-10-carboxylic acid (racemic cis)]	> 4000 nM	< 1 nM
CC(C)(C)C1Cc2cc(OCC3CC3)c(Cl)nc2-c2cc(=O)c(C(=O)O)cn21 (racemic) [Example 30, 6-(tert-Butyl)-2-chloro-3-(cyclopropylmethoxy)-10-oxo-6,10-dihydro-5H-pyrido[1,2-h][1,7]naphthyridine-9-carboxylic acid]	> 4000 nM	1 to 10 nM
COCCCOc1cc2c(nc1Cl)-c1cc(=O)c(C(=O)O)cn1C1C2CCC1(C)C (racemic) [Example 34, 2-Chloro-3-(3-methoxypropoxy)-7,7-dimethyl-11-oxo-4b,5,6,7,7a,11-hexahydrocyclopenta[f]pyrido[1,2-h][1,7]naphthyridine-10-carboxylic acid]	> 4000 nM	< 1 nM
COCCCOc1cc2c(nc1Cl)-c1cc(=O)c(C(=O)O)cn1[C@H]1[C@@H]2CCC1(C)C (single isomer, unassigned) [Example 1]	> 4000 nM	< 1 nM
COCCCOc1cc2c(nc1Cl)-c1cc(=O)c(C(=O)O)cn1[C@@H]1[C@H]2CCC1(C)C (single isomer, unassigned) [Example 2]	> 4000 nM	10 to 100 nM
COCCCOc1cc2c(nc1C1CC1)-c1cc(=O)c(C(=O)O)cn1[C@@H]1C(C)(C)CCC21O (single isomer, unassigned) [Example 5]	> 4000 nM	1 to 10 nM
CC(C)(C)C1Cc2cc(OCC3CC3)c(Cl)nc2-c2cc(=O)c(C(=O)O)cn21 (single isomer, unassigned; isomer 2) [Example 30-B, 6-(tert-Butyl)-2-chloro-3-(cyclopropylmethoxy)-10-oxo-6,10-dihydro-5H-pyrido[1,2-h][1,7]naphthyridine-9-carboxylic acid (isomer 2)]	> 4000 nM	> 100 nM
CC(C)C1(C)Cc2cc(OCC3CC3)c(Cl)nc2-c2cc(=O)c(C(=O)O)cn21 (single isomer, unassigned; isomer-1) [Example 26, (2-Chloro-3-(cyclopropylmethoxy)-6-isopropyl-6-methyl-10-oxo-5,10-dihydro-6H-pyrido[1,2-h][1,7]naphthyridine-9-carboxylic acid-Isomer-1]	> 4000 nM	1 to 10 nM
COCCCOc1cc2c(nc1C1CC1)-c1cc(=O)c(C(=O)O)cn1C(C)(C(C)C)C2 (single isomer, unassigned; isomer-1) [Example 28, 2-Cyclopropyl-6-isopropyl-3-(3-methoxypropoxy)-6-methyl-10-oxo-5,10-dihydro-6H-pyrido[1,2-h][1,7]naphthyridine-9-carboxylic acid-Isomer-1]	> 4000 nM	< 1 nM
COCCCOc1cc2c(nc1C1CC1)-c1cc(=O)c(C(=O)O)cn1[C@H]1[C@@H]2CCC1(C)C [Example 3, (4bR,7aS)-2-Cyclopropyl-3-(3-methoxypropoxy)-7,7-dimethyl-11-oxo-4b,5,6,7,7a,11-hexahydrocyclopenta[f]pyrido[1,2-h][1,7]naphthyridine-10-carboxylic acid]	> 4000 nM	< 1 nM
COCCCOc1cc2c(nc1Cl)-c1cc(=O)c(C(=O)O)cn1[C@@H]1C(C)(C)CCC21O (stereo partly drawn) [Example 6, (7aR)-2-Chloro-4b-hydroxy-3-(3-methoxypropoxy)-7,7-dimethyl-11-oxo-4b,5,6,7,7a,11-hexahydrocyclopenta[f]pyrido[1,2-h][1,7]naphthyridine-10-carboxylic acid]	> 4000 nM	10 to 100 nM
COCCCOc1cc2c(nc1Cl)-c1cc(=O)c(C(=O)O)cn1[C@@H]1C(C)(C)CCC21OC (stereo partly drawn) [Example 7, (7aR)-2-Chloro-4b-methoxy-3-(3-methoxypropoxy)-7,7-dimethyl-11-oxo-4b,5,6,7,7a,11-hexahydrocyclopenta[f]pyrido[1,2-h][1,7]naphthyridine-10-carboxylic acid]	> 4000 nM	10 to 100 nM
COCCCOc1cc2c(nc1O)-c1cc(=O)c(C(=O)O)cn1[C@H]1[C@@H]2CCC1(C)C [Example 8, (4bR,7aS)-2-Hydroxy-3-(3-methoxypropoxy)-7,7-dimethyl-11-oxo-4b,5,6,7,7a,11-hexahydrocyclopenta[f]pyrido[1,2-h][1,7]naphthyridine-10-carboxylic acid]	> 4000 nM	> 100 nM
CC1(C)CC[C@@H]2c3cc(O)c(Cl)nc3-c3cc(=O)c(C(=O)O)cn3[C@@H]21 [Example 9, (4bR,7aS)-2-Chloro-3-hydroxy-7,7-dimethyl-11-oxo-4b,5,6,7,7a,11-hexahydrocyclopenta[f]pyrido[1,2-h][1,7]naphthyridine-10-carboxylic acid]	> 4000 nM	> 100 nM
COCCCOc1cc2c(nc1Cl)-c1cc(=O)c(C(=O)O)cn1C(C(C)(C)CO)C2 (centres unmarked) [Example 10, 2-Chloro-6-(1-hydroxy-2-methylpropan-2-yl)-3-(3-methoxypropoxy)-10-oxo-6,10-dihydro-5H-pyrido[1,2-h][1,7]naphthyridine-9-carboxylic acid]	> 4000 nM	1 to 10 nM
COCCCOc1cc2c(nc1Cl)-c1cc(=O)c(C(=O)O)cn1[C@H](C(C)(C)C)C2 [Example 11, (S)-6-(tert-Butyl)-2-chloro-3-(3-methoxypropoxy)-10-oxo-6,10-dihydro-5H-pyrido[1,2-h][1,7]naphthyridine-9-carboxylic acid]	> 4000 nM	< 1 nM
Cc1nc2c(cc1OCC1CC1)C[C@@H](C(C)(C)C)n1cc(C(=O)O)c(=O)cc1-2 [Example 12, (S)-6-(tert-Butyl)-3-(cyclopropylmethoxy)-2-methyl-10-oxo-6,10-dihydro-5H-pyrido[1,2-h][1,7]naphthyridine-9-carboxylic acid]	> 4000 nM	< 1 nM
COCCCOc1cc2c(nc1C)-c1cc(=O)c(C(=O)O)cn1[C@H](C(C)(C)C)C2 [Example 13, (S)-6-(tert-Butyl)-3-(3-methoxypropoxy)-2-methyl-10-oxo-6,10-dihydro-5H-pyrido[1,2-h][1,7]naphthyridine-9-carboxylic acid]	> 4000 nM	< 1 nM
CC(C)(C)[C@@H]1Cc2cc(OCC3CC3)c(C3CC3)nc2-c2cc(=O)c(C(=O)O)cn21 [Example 14, (S)-6-(tert-Butyl)-2-cyclopropyl-3-(cyclopropylmethoxy)-10-oxo-6,10-dihydro-5H-pyrido[1,2-h][1,7]naphthyridine-9-carboxylic acid]	> 4000 nM	< 1 nM
COCCCOc1cc2c(nc1C1CC1)-c1cc(=O)c(C(=O)O)cn1[C@H](C(C)(C)C)C2 [Example 15, (S)-6-(tert-Butyl)-2-cyclopropyl-3-(3-methoxypropoxy)-10-oxo-6,10-dihydro-5H-pyrido[1,2-h][1,7]naphthyridine-9-carboxylic acid]	> 4000 nM	< 1 nM
COc1nc2c(cc1OCC1CC1)C[C@H](C(C)(C)C)n1cc(C(=O)O)c(=O)cc1-2 [Example 16, (R)-6-(tert-Butyl)-3-(cyclopropylmethoxy)-2-methoxy-10-oxo-6,10-dihydro-5H-pyrido[1,2-h][1,7]naphthyridine-9-carboxylic acid]	> 4000 nM	> 100 nM
COc1nc2c(cc1OCC1CC1)C[C@@H](C(C)(C)C)n1cc(C(=O)O)c(=O)cc1-2 [Example 17, (S)-6-(tert-Butyl)-3-(cyclopropylmethoxy)-2-methoxy-10-oxo-6,10-dihydro-5H-pyrido[1,2-h][1,7]naphthyridine-9-carboxylic acid]	> 4000 nM	< 1 nM
CC(C)(C)[C@@H]1Cc2cc(OCC3CC3)c(O)nc2-c2cc(=O)c(C(=O)O)cn21 [Example 18, (S)-6-(tert-Butyl)-3-(cyclopropylmethoxy)-2-hydroxy-10-oxo-6,10-dihydro-5H-pyrido[1,2-h][1,7]naphthyridine-9-carboxylic acid]	> 4000 nM	> 100 nM
COCCCOc1cc2c(nc1OC)-c1cc(=O)c(C(=O)O)cn1[C@H](C(C)(C)C)C2 [Example 19, (S)-6-(tert-Butyl)-2-methoxy-3-(3-methoxypropoxy)-10-oxo-6,10-dihydro-5H-pyrido[1,2-h][1,7]naphthyridine-9-carboxylic acid]	> 4000 nM	< 1 nM
COCCCOc1cc2c(nc1O)-c1cc(=O)c(C(=O)O)cn1[C@H](C(C)(C)C)C2 [Example 20, (S)-6-(tert-Butyl)-2-hydroxy-3-(3-methoxypropoxy)-10-oxo-6,10-dihydro-5H-pyrido[1,2-h][1,7]naphthyridine-9-carboxylic acid]	> 4000 nM	> 100 nM
